Measurements taken from US20240050449A1, “Use of Acetyltanshinone IIA in Preparation of Medicament for Treating Lung Cancer and Medicament for Treating Lung Cancer” (UNIVERSITY OF MACAU, priority 2022, published 2024).

Tests used:
[1] = test system: A549 cells; assay: MTT cell viability assay, A549 cells; assay type: cell-based; details: Homo sapiens, MTT, 72 h
Experimental: (§1) Cells were seeded at a density of 3×10^3 per well in 96-well plates, allowed to attach overnight, and treated with various concentrations of agent. After 72 h of treatment, 10 μL of MTT solution (5 mg/mL) was added to each well and cultured in the plate for 4 h. The crystallized formazan was dissolved in 100 μL of 10% (w/v) SDS and 0.01 mol/L HCl solution for 24 h, and then the value was read by spectrophotometry at 595 nm using a microplate reader.

[2] = test system: H358 cells; assay: MTT cell viability assay, H358 cells; assay type: cell-based; details: Homo sapiens, NCI-H358, MTT, 72 h
Experimental: as §1

[3] = test system: H1975 cells; assay: MTT cell viability assay, H1975 cells; assay type: cell-based; details: Homo sapiens, NCI-H1975, MTT, 72 h
Experimental: as §1

[4] = test system: H1650 cells; assay: MTT cell viability assay, H1650 cells; assay type: cell-based; details: Homo sapiens, NCI-H1650, MTT, 72 h
Experimental: as §1

[5] = test system: drug-resistant NSCLC cells (A549, H358, H1975, H1650); assay: MTT assay, summary over all four cell lines; assay type: cell-based; details: A549, H358, H1975, H1650; MTT, 72 h; read-out: IC50 values, range over the four cell lines
Experimental: as §1

[6] = test system: H1975 cells; assay: Spheroid formation experiment, H1975 cells; assay type: cell-based; details: 2 μM, 0 to 8 days
Text: The density of H1975 was 500 cells per well and the density of H1650 was 1000 cells per well in an ultra-low adhesion round bottom 96 well plate (Corning, #7007).

[7] = test system: A549 cells; assay: Transwell cell migration assay; assay type: cell-based; details: 1 μM
Experimental: (§2) Cell migration and invasion assays were performed in a transwell chamber (Corning, #3422) with a pore size of 8 μm. Cells were treated with different concentrations of ATA and Erlotinib for 48 h, then harvested and resuspended in a serum-free medium. Cells (1×10^4) were added to the upper side of the transwell chamber and fresh medium containing 10% FBS was added to the lower side. Cells were allowed to migrate from the upper side to the lower side of the chamber at 37° C. for 24 h. Membranes from the cell chamber were fixed with 4% paraformaldehyde for 20 min. The cells remaining on the upper side of the membrane were gently removed with a cotton swab and stained with 1% crystal violet for 20 min to stain the cells migrating to the other side of the transwell chamber. The membrane was then cut and fixed on a glass slide. The migrated cells on each slide were imaged with a Leica M165-FC microscope. For the transwell invasion assay, a Matrigel solution (Corning, #356230) was diluted to one-thirtieth with serum-free medium and applied to the upper side of the precoated chamber for 2 h, after the Matrigel had solidified, the cells were added to the upper side of the transwell chamber. The following procedure is identical to the migration assay. Migrated and invaded cells were quantified using ImageJ software.

[8] = test system: A549 cells; assay: Transwell Matrigel invasion assay; assay type: cell-based; details: 1 μM
Experimental: as §2

[9] = test system: EGFR; assay: Western blot, EGFR protein levels in drug-resistant NSCLC cells; assay type: cell-based; details: A549 and H1650 cells, 2 μM, 48 h
Experimental: Cells were washed once with PBS and frozen in RIPA lysis buffer containing protease and phosphatase inhibitors (Sigma-Aldrich) for 30 min. After sonication and centrifugation, the total protein concentration was determined by protein assay using Bio-Rad concentrated dye reagent (Bio-Rad). Equal amounts of protein ([…]) from each sample were separated by SDS-PAGE and electrotransferred to nitrocellulose membranes (GE Healthcare). Detection was performed on the membrane with a 1:1000 dilution of specific primary antibody followed by incubation with a 1:2000 dilution of the HRP conjugated secondary antibody. Finally, immunoreactivity is detected with a chemiluminescent substrate (Clarity Western ECL substrate; Bio-Rad). […] Aurora A (#ab13824) and PLK1 (#ab189139) antibodies were from Abcam.

[10] = test system: A549 cell-derived xenograft tumors; assay: Mouse xenograft study; assay type: in vivo, nude mice; details: 25 mg/kg intraperitoneally every 3 days, day 31
Experimental: (§3) Cell line xenograft experiments were performed in 6-week-old female nude mice, 4×10^6 A549 cells were mixed 1:1 with matrigel-basement membrane matrix (Corning) and injected subcutaneously into nude mice. Tumors were allowed to grow to around […] and mice were randomly selected to receive treatment with ATA (25 mg/kg) or Erlotinib (25 mg/kg) intraperitoneally every 3 days for 31 days. ATA was formulated with 25% ethanol, 60% PEG300 (Sigma-Aldrich), and 15% Tween 80 (Sigma-Aldrich). Erlotinib was formulated in 5% DMSO, 30% PEG300, 5% Tween 80 and 60% H2O. Mouse body weight and tumor volume were measured every 3 days by a scale and caliper. Tumor volume (mm^3) was calculated using the formula. π/6×length (mm)×[width (mm)]^2. At least 6 mice in the control and treatment groups were evaluated during the study. All mice were sacrificed after 31 days of drug treatment, tumors were collected, and tumor weights were recorded. All animal studies were conducted in accordance with the requirements of the Animal Research Ethics Committee of Macao University and in compliance with all relevant ethical requirements.
(§4) To determine if ATA could also produce the same effect in vivo, this example injected A549 cells subcutaneously into nude mice to form tumor xenografts. Mice were randomly assigned to three groups. When the size of each tumor increased to a volume of approximately 100 mm^3, mice were injected intraperitoneally with vehicle control, ATA (25 mg/kg), or Erlotinib (25 mg/kg) every 3 days for 31 days. The tumor size and body weight of each mouse were measured every 3 days until the end of the animal experiment on day 31.

[11] = Body weight, deaths and toxicity in the xenograft study; details: 25 mg/kg intraperitoneally every 3 days for 31 days
Experimental: as §3, §4

[12] = test system: H1650 cells; assay: Spheroid formation experiment, H1650 cells; details: 2 μM, 0 to 8 days
[13] = test system: A549 and H1650 cells; assay: Protein synthesis rate (click-iT HPG Alexa Fluor 594 Protein Synthesis Assay Kit); assay type: cell-based; details: 2 μM, 48 h
Experimental: In FIG. 3 (A) is protein levels of p-Akt, Akt, p-mTOR, mTOR, p-p70S6K, p70S6K, p-S6RP, and S6RP determined by Western blot analysis for A549, H358, H1975, and H1650 cells treated with ATA (1 or 2 μM) for 48 h. (B) is A549 and H1650 cells treated with ATA (1 or 2 μM) or the protein synthesis inhibitor […] (CHX, 35 μM), respectively, for 48 h. The rate of protein synthesis was determined using the click-iT™ HPG Alexa Fluor™ 594 Protein Synthesis Assay Kit. The intensity of Texas Red fluorescence in the stained image represents the rate of protein synthesis. Quantification of the rate of protein synthesis is shown. ****P<0.0001 was based on a one-way analysis of variance followed by Tukey's multiple comparison test. Scale bar, 50 μm. […] Protein levels of p-p70S6K. p70S6K. p-S6RP, and S6RP were determined by Western blot analysis. […] The rate of protein synthesis was determined using the click-iT™ HPG Alexa Fluor™ 594 Protein Synthesis Assay Kit. The intensity of Texas Red fluorescence in the stained image represents the rate of protein synthesis. Quantification of the rate of protein synthesis is shown. *P<0.05 and **P<0.01 were based on a one-way analysis of variance followed by Tukey's multiple comparison test. […] Protein levels of p70S6K. p-p70S6K, S6RP, and p-S6RP were determined by Western blot analysis. […] Data are expressed as the mean±SD of three independent experiments.

[14] = target: T1, p70S6K (Homo sapiens, UniProt P23443); assay: Western blot, p70S6K protein levels in drug-resistant NSCLC cells; assay type: cell-based; details: A549 and H1650 cells, 2 μM, 48 h
T1 construct: endogenous in cells; host or cells: A549, H358, H1975, H1650 for the Western blots
Experimental: Cells were washed once with PBS and frozen in RIPA lysis buffer containing protease and phosphatase inhibitors (Sigma-Aldrich) for 30 min. After sonication and centrifugation, the total protein concentration was determined by protein assay using Bio-Rad concentrated dye reagent (Bio-Rad). Equal amounts of protein ([…]) from each sample were separated by SDS-PAGE and electrotransferred to nitrocellulose membranes (GE Healthcare). Detection was performed on the membrane with a 1:1000 dilution of specific primary antibody followed by incubation with a 1:2000 dilution of the HRP conjugated secondary antibody. Finally, immunoreactivity is detected with a chemiluminescent substrate (Clarity Western ECL substrate; Bio-Rad). EGFR (#4267S), MET (#8198S), p-Akt (#9271L), akt (#9272S), p-mTOR (#5536S), mTOR (#2983S), p-p70S6K (#9234S), p70S6K (#2708S), p-S6RP (#4857S), S6RP (#2217S), p-4E-BP1 (#9455S) antibodies. 4E-BP1 (#9644S), p53 (#2527S), p21 waf1/Cip1 (#2947S), survivin (#2808S), cyclin B1 (#12231S), cyclin D3 (#2936S) and GAPDH (#2118S) were purchased from Cell Signaling Technology. Aurora A (#ab13824) and PLK1 (#ab189139) antibodies were from Abcam.

T1 sequence (P23443 whole entry): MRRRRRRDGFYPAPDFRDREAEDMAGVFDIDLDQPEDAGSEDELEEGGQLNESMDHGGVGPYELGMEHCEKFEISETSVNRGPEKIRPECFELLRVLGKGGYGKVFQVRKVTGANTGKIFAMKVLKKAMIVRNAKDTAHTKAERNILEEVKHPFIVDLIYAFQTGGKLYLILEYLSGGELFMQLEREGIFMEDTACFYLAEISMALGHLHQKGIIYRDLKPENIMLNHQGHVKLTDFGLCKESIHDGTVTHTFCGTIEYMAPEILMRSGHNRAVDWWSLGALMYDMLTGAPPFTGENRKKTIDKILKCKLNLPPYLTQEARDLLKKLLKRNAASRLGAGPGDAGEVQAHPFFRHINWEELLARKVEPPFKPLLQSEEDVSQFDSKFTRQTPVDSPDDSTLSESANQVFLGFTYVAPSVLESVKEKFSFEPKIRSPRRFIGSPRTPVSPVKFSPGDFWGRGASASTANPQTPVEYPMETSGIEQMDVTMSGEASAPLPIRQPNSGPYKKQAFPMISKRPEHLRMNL

Structure (SMILES)	IC50 [1] [µM]	IC50 [2] [µM]	IC50 [3] [µM]	IC50 [4] [µM]	IC50 [5] [µM]	spheroid growth / sphere size [6]	reduction of migration ability [7]	reduction of invasion ability [8]	protein levels of EGFR [9]	reduction of tumor size compared to the control group [10] [%]	reduction of tumor weight [10]	deaths during the treatment period [11]	weight of nude mice compared between groups [11]	spheroid growth / sphere size [12]	reduction (inhibition ratio) of protein synthesis [13]	levels of p70S6K [14]
C#Cc1cccc(Nc2ncnc3cc(OCCOC)c(OCCOC)cc23)c1 [Erlotinib, reference compound]	19.6 ± 0.28	21.5 ± 1.47	10.6 ± 1.27	22.1 ± 0.59	10 to 22	did not decrease but significantly increased	did not	did not	significantly increased	32.5	did not significantly reduce	no mice died	no difference	less inhibition in H1650 cells than ATA	–	–
CCc1cncnc1N1CCN(Cc2nc3ccc(C(F)(F)F)cc3[nH]2)CC1 [PF-4708671, reference compound]	–	–	–	–	–	–	–	–	–	–	–	–	–	–	did not affect	did not decrease
CO[C@H]1C[C@@H]2CC[C@@H](C)[C@@](O)(O2)C(=O)C(=O)N2CCCC[C@H]2C(=O)O[C@H]([C@H](C)C[C@@H]2CC[C@@H](O)[C@H](OC)C2)CC(=O)[C@H](C)/C=C(\C)[C@@H](O)[C@@H](OC)C(=O)[C@H](C)C[C@H](C)/C=C/C=C/C=C/1C [Rapamycin, rapamycin]	–	–	–	–	–	–	–	–	–	–	–	–	–	–	25-28%	–
